Laboratory results published in US20250270213A1, “PI3Ka INHIBITORS” (Synnovation Therapeutics, Inc., priority 2022, published 2025).
pIC50: −log10 of the molar value.

Tested on: T47D (PIK3CA H1047R) cells
Experiment: pS473 AKT assay with 2.5% FBS, T47D cells
Format: cell-based
Settings: Homo sapiens, pSer473 AKT, DMEM with 2.5% FBS, 2 h treatment, read-out: T47D_IC50
Procedure: Example B. pS473 AKT Assay Protocol with 2.5% FBS
T47D (PIK3CA H1047R) cells were cultured using 10-cm petri dishes with recommended medium plus 10% fetal bovine serum. One day before the assay, cells were seeded in 96-well plates. After overnight incubation, the medium was changed to DMEM with 2.5% fetal bovine serum (FBS) and the cells were treated with different concentrations of the compounds for 2 h. Cells were then fixed using 4% paraformaldehyde at room temperature for 20 min. Aspirate 4% paraformaldehyde, and wash cells using 1× regular phosphate buffered saline 3 times, 5 min each. Aspirate any residual phosphate buffered saline and block cells using 10% goat serum containing 1% bovine serum albumin and 0.3% Triton X-100 at room temperature for 1 h. Without any additional washing, primary antibodies (rabbit anti-pSer473 AKT) were diluted using blocking buffer and added at a final volume of 50 microliter per well. Keep assay plates with primary antibodies overnight at 4° C. Wash cells using 1× regular phosphate buffered saline 3 times, 5 min each. After the final wash, incubate cells with horseradish peroxidase-conjugated secondary antibodies (goat Anti-rabbit IgG) diluted using the same blocking buffer at room temperature for 1 h. Wash cells thoroughly using 1× regular phosphate buffered saline 3 times, 5 min each. Aspirate any residual phosphate buffered saline. Add Super-Signal ELISA Pico Chemiluminescent Substrate at a final volume of 100 microliter per well. Read plates on i3x Multi-Mode Microplate Reader and calculate IC50 values using GraphPad Prism software.

SMILES	pIC50
CCn1ncc2c3c(C(CO)Nc4ccc(Cl)nc4-c4cnn(C)c4)cc(C)cc3c(=O)n(C)c21 (centres unmarked) [Compound 77, 9-(1-((6-Chloro-2-(1-methyl-1H-pyrazol-4-yl)pyridin-3-yl)amino)-2-hydroxyethyl)-3-ethyl-4,7-dimethyl-3,4-dihydro-5H-pyrazolo[3,4-c]isoquinolin-5-one]	> 6.00
CCn1ncc2c3c(C(CO)Nc4ccc(Cl)nc4-c4cnn(C)c4C)cc(C)cc3c(=O)n(C)c21 (centres unmarked) [Compound 78, 9-(1-((6-Chloro-2-(1,5-dimethyl-1H-pyrazol-4-yl)pyridin-3-yl)amino)-2-hydroxyethyl)-3-ethyl-4,7-dimethyl-3,4-dihydro-5H-pyrazolo[3,4-c]isoquinolin-5-one]	> 6.00
CCn1ncc2c3c(C(C)Nc4ccc(Cl)nc4-c4cnn(C5CCN(C)CC5)c4)cc(C)cc3c(=O)n(C)c21 (centres unmarked) [Compound 79, 9-(1-((6-Chloro-2-(1-(1-methylpiperidin-4-yl)-1H-pyrazol-4-yl)pyridin-3-yl)amino)ethyl)-3-ethyl-4,7-dimethyl-3,4-dihydro-5H-pyrazolo[3,4-c]isoquinolin-5-one]	> 6.00
CCn1ncc2c3c(C(C)Nc4ccc(Cl)nc4N4CCN(C(C)=O)CC4)cc(C)cc3c(=O)n(C)c21 (centres unmarked) [Compound 80, 9-(1-((2-(4-Acetylpiperazin-1-yl)-6-chloropyridin-3-yl)amino)ethyl)-3-ethyl-4,7-dimethyl-3,4-dihydro-5H-pyrazolo[3,4-c]isoquinolin-5-one]	> 6.00
Cc1cc(C(C)Nc2ccc(Cl)nc2-c2cnn(C)c2)c2c(c1)c(=O)n(C)c1c2cnn1C1CN(C)C1 (centres unmarked) [Compound 81, 9-(1-((6-Chloro-2-(1-methyl1H-pyrazol-4-yl)pyridin-3-yl)amino)ethyl)-4,7-dimethyl-3-(1-methylazetidin-3-yl)-3,4-dihydro-5H-pyrazolo[3,4-c]isoquinolin-5-one]	> 6.00
Cc1cc(C(C)Nc2ccc(Cl)nc2-c2ncn(C)n2)c2c(c1)c(=O)n(C)c1c2cnn1C1CN(C)C1 (centres unmarked) [Compound 82, 9-(1-((6-chloro-2-(1-methyl-1H-1,2,4-triazol-3-yl)pyridin-3-yl)amino)ethyl)-4,7-dimethyl-3-(1-methylazetidin-3-yl)-3,4-dihydro-5H-pyrazolo[3,4-c]isoquinolin-5-one]	> 6.00
Cc1cc(C(C)Nc2ccc(Cl)nc2-c2ncn(CCO)n2)c2c(c1)c(=O)n(C)c1c2cnn1C1CN(C)C1 (centres unmarked) [Compound 83, 9-(1-((6-chloro-2-(1-(2-hydroxyethyl)-1H-1,2,4-triazol-3-yl)pyridin-3-yl)amino)ethyl)-4,7-dimethyl-3-(1-methylazetidin-3-yl)-3,4-dihydro-5H-pyrazolo[3,4-c]isoquinolin-5-one]	> 6.00
Cc1cc(C(C)Nc2ccc(Cl)nc2-c2cn[nH]c2)c2c(c1)c(=O)n(C)c1c2cnn1C1CN(C)C1 (centres unmarked) [Compound 84, 9-(1-((6-chloro-2-(1H-pyrazol-4-yl)pyridin-3-yl)amino)ethyl)-4,7-dimethyl-3-(1-methylazetidin-3-yl)-3,4-dihydro-5H-pyrazolo[3,4-c]isoquinolin-5-one]	> 6.00
Cc1cc(C(C)Nc2ccc(Cl)nc2-c2ccc(=O)n(C)c2)c2c(c1)c(=O)n(C)c1c2cnn1C1CN(C)C1 (centres unmarked) [Compound 85, 9-(1-((6-chloro-1′-methyl-6′-oxo-1′,6′-dihydro-[2,3′-bipyridin]-3-yl)amino)ethyl)-4,7-dimethyl-3-(1-methylazetidin-3-yl)-3,4-dihydro-5H-pyrazolo[3,4-c]isoquinolin-5-one]	> 6.00
CNC(=O)c1ccc(-c2cc(Cl)ccc2NC(C)c2cc(C)cc3c(=O)n(C)c4c(cnn4C4CN(C)C4)c23)cn1 (centres unmarked) [Compound 86, 5-(5-chloro-2-((1-(4,7-dimethyl-3-(1-methylazetidin-3-yl)-5-oxo-4,5-dihydro-3H-pyrazolo[3,4-c]isoquinolin-9-yl)ethyl)amino)phenyl)-N-methylpicolinamide]	> 6.00
Cc1cc(C(C)Nc2ccc(Cl)nc2-c2ccc3c(c2)CN(C)C3=O)c2c(c1)c(=O)n(C)c1c2cnn1C1CN(C)C1 (centres unmarked) [Compound 87, 9-(1-((6-chloro-2-(2-methyl-1-oxoisoindolin-5-yl)pyridin-3-yl)amino)ethyl)-4,7-dimethyl-3-(1-methylazetidin-3-yl)-3,4-dihydro-5H-pyrazolo[3,4-c]isoquinolin-5-one]	> 6.00
Cc1cc(C(C)Nc2ccc(Cl)nc2-c2ccc3c(cnn3C)c2)c2c(c1)c(=O)n(C)c1c2cnn1C1CN(C)C1 (centres unmarked) [Compound 88, 9-(1-((6-chloro-2-(1-methyl-1H-indazol-5-yl)pyridin-3-yl)amino)ethyl)-4,7-dimethyl-3-(1-methylazetidin-3-yl)-3,4-dihydro-5H-pyrazolo[3,4-c]isoquinolin-5-one]	> 6.00
Cc1cc(C(C)Nc2ccc(Cl)nc2-c2ncn(C)n2)c2c(c1)c(=O)n(C)c1c2cnn1C1CN(CCO)C1 (centres unmarked) [Compound 89, 9-(1-((6-chloro-2-(1-methyl-1H-1,2,4-triazol-3-yl)pyridin-3-yl)amino)ethyl)-3-(1-(2-hydroxyethyl)azetidin-3-yl)-4,7-dimethyl-3,4-dihydro-5H-pyrazolo[3,4-c]isoquinolin-5-one]	> 6.00
Cc1cc(C(C)Nc2ccc(Cl)nc2-c2ncn(C)n2)c2c(c1)c(=O)n(C)c1c2cnn1C1CN(C2CC2)C1 (centres unmarked) [Compound 90, 9-(1-((6-chloro-2-(1-methyl-1H-1,2,4-triazol-3-yl)pyridin-3-yl)amino)ethyl)-3-(1-cyclopropylazetidin-3-yl)-4,7-dimethyl-3,4-dihydro-5H-pyrazolo[3,4-c]isoquinolin-5-one]	> 6.00
Cc1cc(C(C)Nc2ccc(Cl)nc2-c2ncn(C)n2)c2c(c1)c(=O)n(C)c1c2cnn1C1CN(C[C@H](C)O)C1 (stereo partly drawn) [Compound 91, 9-(1-((6-chloro-2-(1-methyl-1H-1,2,4-triazol-3-yl)pyridin-3-yl)amino)ethyl)-3-(1-((S)-2-hydroxypropyl)azetidin-3-yl)-4,7-dimethyl-3,4-dihydro-5H-pyrazolo[3,4-c]isoquinolin-5-one]	> 6.00
Cc1cc(C(C)Nc2ccc(Cl)nc2-c2ncn(C)n2)c2c(c1)c(=O)n(C)c1c2cnn1C1CN(C[C@@H](C)O)C1 (stereo partly drawn) [Compound 92, 9-(1-((6-chloro-2-(1-methyl-1H-1,2,4-triazol-3-yl)pyridin-3-yl)amino)ethyl)-3-(1-((R)-2-hydroxypropyl)azetidin-3-yl)-4,7-dimethyl-3,4-dihydro-5H-pyrazolo[3,4-c]isoquinolin-5-one]	> 6.00
Cc1cc(C(C)Nc2ccc(Cl)nc2-c2ncn(C)n2)c2c(c1)c(=O)n(C)c1c2cnn1C1CN(CC(C)(C)O)C1 (centres unmarked) [Compound 93, 9-(1-((6-chloro-2-(1-methyl-1H-1,2,4-triazol-3-yl)pyridin-3-yl)amino)ethyl)-3-(1-(2-hydroxy-2-methylpropyl)azetidin-3-yl)-4,7-dimethyl-3,4-dihydro-5H-pyrazolo[3,4-c]isoquinolin-5-one]	> 6.00
Cc1cc(C(C)Nc2ccc(Cl)nc2-c2ncn(C)n2)c2c(c1)c(=O)n(C)c1c2cnn1C1CN(CC(F)F)C1 (centres unmarked) [Compound 94, 9-(1-((6-chloro-2-(1-methyl-1H-1,2,4-triazol-3-yl)pyridin-3-yl)amino)ethyl)-3-(1-(2,2-difluoroethyl)azetidin-3-yl)-4,7-dimethyl-3,4-dihydro-5H-pyrazolo[3,4-c]isoquinolin-5-one]	> 6.00
Cc1cc(C(C)Nc2ccc(Cl)nc2-c2ncn(C)n2)c2c(c1)c(=O)n(C)c1c2cnn1C1CN(CC#N)C1 (centres unmarked) [Compound 95, 2-(3-(9-(1-((6-chloro-2-(1-methyl-1H-1,2,4-triazol-3-yl)pyridin-3-yl)amino)ethyl)-4,7-dimethyl-5-oxo-4,5-dihydro-3H-pyrazolo[3,4-c]isoquinolin-3-yl)azetidin-1-yl)acetonitrile]	> 6.00
Cc1cc(C(C)Nc2ccc(Cl)nc2-c2ncn(C)n2)c2c(c1)c(=O)n(C)c1c2cnn1C1CN(CCC#N)C1 (centres unmarked) [Compound 96, 3-(3-(9-(1-((6-chloro-2-(1-methyl-1H-1,2,4-triazol-3-yl)pyridin-3-yl)amino)ethyl)-4,7-dimethyl-5-oxo-4,5-dihydro-3H-pyrazolo[3,4-c]isoquinolin-3-yl)azetidin-1-yl)propanenitrile]	> 6.00
CC(=O)N1CC(n2ncc3c4c(C(C)Nc5ccc(Cl)nc5-c5ncn(C)n5)cc(C)cc4c(=O)n(C)c32)C1 (centres unmarked) [Compound 97, 3-(1-Acetylazetidin-3-yl)-9-(1-((6-chloro-2-(1-methyl-1H-1,2,4-triazol-3-yl)pyridin-3-yl)amino)ethyl)-4,7-dimethyl-3,4-dihydro-5H-pyrazolo[3,4-c]isoquinolin-5-one]	> 6.00
COC(=O)N1CC(n2ncc3c4c(C(C)Nc5ccc(Cl)nc5-c5ncn(C)n5)cc(C)cc4c(=O)n(C)c32)C1 (centres unmarked) [Compound 98, methyl 3-(9-(1-((6-chloro-2-(1-methyl-1H-1,2,4-triazol-3-yl)pyridin-3-yl)amino)ethyl)-4,7-dimethyl-5-oxo-4,5-dihydro-3H-pyrazolo[3,4-c]isoquinolin-3-yl)azetidine-1-carboxylate]	> 6.00
Cc1cc(C(C)Nc2ccc(Cl)nc2-c2ncn(C)n2)c2c(c1)c(=O)n(C)c1c2cnn1C1CN(S(C)(=O)=O)C1 (centres unmarked) [Compound 99, 9-(1-((6-chloro-2-(1-methyl-1H-1,2,4-triazol-3-yl)pyridin-3-yl)amino)ethyl)-4,7-dimethyl-3-(1-(methylsulfonyl)azetidin-3-yl)-3,4-dihydro-5H-pyrazolo[3,4-c]isoquinolin-5-one]	> 6.00
